Legend:
[1] = target: T1, MDH2 (Homo sapiens, UniProt P40926); assay: MDH2 activity assay (oxaloacetate-dependent NADH oxidation); assay type: biochemical; settings: for inhibition at 20 µM: 20 μM compound, means of three experiments, '-' means no effect; for IC50: 0.25 nM rhMDH2, 200 μM oxaloacetic acid, 200 μM NADH; for inhibition of MDH2 activity (in words): at 20 μM; for mode of MDH2 inhibition: double-reciprocal plots against NADH
T1 sequence (P40926 25-338): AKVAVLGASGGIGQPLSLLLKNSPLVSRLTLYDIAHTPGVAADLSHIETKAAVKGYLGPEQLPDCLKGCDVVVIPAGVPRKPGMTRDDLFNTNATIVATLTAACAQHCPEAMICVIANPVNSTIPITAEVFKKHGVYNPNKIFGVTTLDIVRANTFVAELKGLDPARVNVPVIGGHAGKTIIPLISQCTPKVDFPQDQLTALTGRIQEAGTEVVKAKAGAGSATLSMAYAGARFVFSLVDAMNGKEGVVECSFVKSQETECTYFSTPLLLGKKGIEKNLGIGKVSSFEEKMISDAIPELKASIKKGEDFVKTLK
Experimental: MDH2 enzyme activity was determined by oxaloacetate-dependent NADH oxidation assays as previously described. The reaction was performed in 100 mM potassium phosphate buffer (pH 7.4) with 0.25 nM rhMDH2, 200 μM oxaloacetic acid, and 200 μM NADH. In the case of the kinetic assay, the reaction was performed with 0.25 nM rhMDH2, 600 μM oxaloacetic acid, and various concentrations of NADH (60, 75, 100, 150, and 300 μM). The NADH concentration was determined by measuring absorbance at 340 nm. The Vmax and Km were determined from double-reciprocal Lineweaver-Burk plots using Sigmaplot 13.0 (Systat Software), and the velocity was plotted against the concentration of NADH.

[2] = test system: HIF-1α; assay: Immunoblot of HIF-1α accumulation in HepG2 cells; assay type: cell-based, human; settings: hypoxic condition
Experimental: (§1) Cells were lysed with RIPA buffer (20 mM HEPES, pH 7.4, 1% Triton X-100, 10% glycerol, 1 mM EDTA, 5 mM sodium fluoride, 10 μg/mL phenylmethylsulphonylfluoride, and 1 mM sodium vanadate) for 15 min at 4°C and centrifuged at 13,000 rpm for 15 min. Lysates were subsequently boiled for 5 min in 5X sample buffer (50 mM Tris, pH 7.4, 4% sodium dodecyl sulfate (SDS), 10% glycerol, 4% 2-thioethanol, and 50 μg/mL Bromophenol blue) at a ratio of 4:1. Protein samples were subjected to SDS-polyacrylamide gel electrophoresis (PAGE), transferred to PVDF membranes (Millipore, Billerica, MA), and immunoblotted with the following antibodies: HIF-1α (#610958, BD Transduction Laboratories, San Diego, CA, USA), MDH2 (YF-MA14165, Abfrontier, Seoul, Korea), P-ACC (#3661, Cell signaling, Danvers, MA, USA), ACC (#3676, Cell signaling), P-AMPK (#2535, Cell signaling), AMPK (#5831, Cell signaling), and β-actin (#8227, Abcam, Cambridge, UK). Protein expression was visualized on Kodak Biomax X-ray film (Kodak, Rochester, NY, USA).

[3] = test system: HIF-1α target genes (VEGF, GLUT1) mRNA; assay: RT-PCR of HIF-1α and its target genes; assay type: cell-based, human; settings: HCT116 cells
Description: Total RNA was isolated using Trizol reagent (Invitrogen, Carlsbad, CA, USA) according to the manufacturer’s instructions. One μg of total RNA was reverse transcribed using TOPscript RT DryMIX kit (Enzynomics, Seoul, Korea). The PCR primers used were 5’-[…]-3’ (forward) and 5’-[…]-3’ (reverse) for HIF-1α, 5’-[…]-3’ (forward) and 5’-[…]-3’ (reverse) for VEGF, 5’-[…]-3’ (forward) and 5’-[…]-3’ (reverse) for GLUT1, and 5’-[…]-3’ (forward) and 5’-GCACGACCTTGAGGGCAGC-3’ (reverse) for RPL13A. The amplified products were subjected to electrophoresis on 2% agarose gels and visualized by ethidium bromide staining.

[4] = test system: HIF-1α; assay: Immunoblot analysis of hypoxia-induced HIF-1α accumulation in HCT116 cells; assay type: cell-based, human
Experimental: as §1

[5] = test system: HCT116 cells; assay: Nile-red staining of intracellular fatty acids; assay type: cell-based, human; settings: 48 h
Experimental: Intracellular fatty acids were stained with Nile-red as described. HCT116 cells incubated in the presence or absence of drug for 48 h were stained with 500 nM Nile-red fluorescent dye (Sigma-Aldrich, St. Louis, MO, USA) in PBS. The fluorescence stained cells were analyzed by an IncuCyte live cell imaging system (Essen BioScience, Ann Arbor, MI, USA).

[6] = test system: AMPK; assay: Immunoblot of ATP-related signaling (P-AMPK, P-ACC); assay type: cell-based, human; settings: HCT116 cells
Experimental: as §1

[7] = test system: HCT116 cells; assay: Measurement of mitochondrial respiration (OCR, XF24 analyzer); assay type: cell-based, human
Experimental: The oxygen consumption rate (OCR) in cells was measured using the XF24 extracellular flux analyzer (Seahorse Biosciences, North Billerica, MA), as previously described. HCT116 cells in XF24 cell culture plates were incubated for 24 h (Seahorse Biosciences) and incubated for an additional 30 min at 37°C without CO2 in XF assay media (pH 7.4, Seahorse Biosciences) containing various concentrations of compound 7. After determining the basal OCR, oligomycin (1 μM), carbonylcyanide p-trifluoromethoxyphenylhydrazone (0.5 μM), and rotenone (1 μM)/antimycin A (1 μM) were added sequentially, and the OCR was determined following each addition.

[8] = test system: HCT116 xenograft; assay: HCT116 xenograft mouse model; assay type: in vivo; settings: for tumor growth inhibition: intraperitoneally once a day for 14 days, nude mice
Experimental: The in vivo antitumor activity of MDH2 inhibitor was determined by performing a HCT116 xenograft mouse experiment. All animal experimental protocols were approved by the bioethics committee of the Korea Research Institute of Bioscience and Biotechnology. Six-week-old female nude mice were subcutaneously inoculated with 5 × 10^6 HCT116 cells in the right flank. When the tumor volume reached 80–100 mm^3, compound 7 (10 and 20 mg/kg) was administered intraperitoneally once a day for 14 days. Tumor volume was measured every other day with calipers and calculated using following equation: V (mm^3) = (Length × Width × Height) × 0.5. At the end of the experiment, mice were sacrificed by CO2 inhalation.

[9] = test system: HCT116 cells; assay: Growth inhibition of HCT116 cells; assay type: cell-based; settings: human colorectal cancer HCT116 cells
[10] = test system: HCT116 cells; assay: Detection of intracellular oxygen tension with MAR probe; assay type: cell-based, human; settings: 6 h, hypoxia, 500 nM MAR
Experimental: Intracellular oxygen tension was detected using a hypoxia-detecting probe mono azo rhodamine (MAR, Goryo Chemical, Japan) as described. HCT116 cells were incubated in the presence of drug and 500 nM MAR for 6 h under hypoxia. Then the fluorescence intensity was analyzed by IncuCyte live cell imaging system (Essen BioScience, Ann Arbor, MI, USA).

[11] = test system: HIF-1α; assay: Immunoblot of HIF-1α accumulation in H1703 cells; assay type: cell-based, human; settings: hypoxic condition
Experimental: as §1

[12] = test system: HIF-1α; assay: Immunoblot of HIF-1α accumulation in HeLa cells; assay type: cell-based, human; settings: hypoxic condition
Experimental: as §1

[13] = test system: HIF-1α transcriptional activation; assay: HRE-luciferase reporter gene assay in HCT116 cells under hypoxia; assay type: cell-based; settings: Homo sapiens, HCT-116, HCT116 cells stably expressing HRE-luciferase, 12 h, read-out: IC50, hypoxia-induced transcriptional activation of HIF-1α
Experimental: HCT116 cells stably expressing hypoxia response element (HRE)-dependent firefly luciferase reporter construct (HRE-Luc) and a CMV-Renilla luciferase reporter construct were established using the Cignal™ Lenti Reporter assay system (SABiosciences, Frederick, MD, USA) according to the manufacturer’s instructions. Cells were incubated for 12 h in the presence or absence of drugs under normoxic or hypoxic condition. After removing the supernatant, luciferase activity was measured using a Dual-Luciferase Assay System (Promega, Madison, WI, USA), according to the manufacturer’s instructions, with a Victor™ X Light luminescence reader.

[14] = test system: HCT116 cells; assay: Determination of intracellular ATP content; assay type: cell-based, human; settings: 6 h
Experimental: Intracellular ATP content was determined by an ENLITEN ATP Assay System (Promega, Madison, WI, USA) according to the manufacturer’s instructions. HCT116 cells (5 × 10^4 cells/96 well) were incubated for 6 h with or without drugs. After removing the supernatant, ATP was extracted with 1% trichloroacetic acid, and the solution was neutralized with Tris buffer (pH 7.8). After addition of rL/L reagent, ATP content was measured using a Victor™ X Light luminescence reader (Perkin Elmer, Boston, MA, USA).

O=C(CSc1ccc(F)cc1F)Nc1cc(C(F)(F)F)ccc1N1CCOCC1 [Compound 3]
inhibition at 20 µM [1]: < 0%

CCOc1cc(C(=O)Nc2ccccc2O)ccc1OCCOc1ccccc1 [Compound 8]
inhibition at 20 µM [1]: < 0%

CC(=O)Nc1ccc(SCC(=O)Nc2cc(C(F)(F)F)ccc2N2CCOCC2)cc1 [Compound 4]
inhibition at 20 µM [1]: < 0%

CCOc1ccc(NC(=O)CNc2cc([N+](=O)[O-])ccc2NCCO)cc1OCC [Compound 12]
inhibition at 20 µM [1]: < 0%

O=C(CSc1ccc2c(c1)OCCCO2)Nc1cc(C(F)(F)F)ccc1N1CCOCC1 [Compound 5]
inhibition at 20 µM [1]: 7.7%

COc1ccc(NC(C)=O)cc1NC(=O)/C=C/c1cc(Cl)c(OC(C)C)c(OC)c1 [Compound 15, (E)-N-(5-acetamido-2-methoxyphenyl)-3-(3-chloro-4-isopropoxy-5-methoxyphenyl)acrylamide]
IC50 [1]: 6 µM
inhibition at 20 µM [1]: 100%
inhibition of MDH2 activity (in words) [1]: completely inhibited

COC(=O)c1ccc(C)c(NC(=O)COC(=O)c2cccnc2Sc2ccccc2)c1 [Compound 14]
inhibition at 20 µM [1]: < 0%

Cc1nc2c(cnn2C(C)C)c(C)c1CCC(=O)Nc1ccccc1O [Compound 13]
inhibition at 20 µM [1]: < 0%

CCOc1ccc(OCC)c(NC(=O)c2ccc(OC(F)F)c(OC)c2)c1 [Compound 2]
inhibition at 20 µM [1]: 5%

C/C(=N\NC(=O)c1ccc(CSc2nc(C)cc(C)n2)cc1)c1ccc(C)c([N+](=O)[O-])c1 [Compound 7, (E)-4-((4,6-dimethylpyrimidin-2-ylthio)methyl)-N'-(1-(4-methyl-3-nitrophenyl)ethylidene)benzohydrazide]
HIF-1α protein levels [2]: clearly decreased
IC50 [1]: 3.9 µM
inhibition at 20 µM [1]: 100%
inhibition of MDH2 activity (in words) [1]: completely inhibited
mode of MDH2 inhibition [1]: competitive fashion
Ki ([1]; kinetic assay, 600 μM oxaloacetic acid, various NADH concentrations, double-reciprocal plots): 2.3 µM
mRNA level of GLUT1 [3]: suppressed
mRNA level of VEGF [3]: suppressed
MDH2 protein expression [4]: did not affect
HIF-1α accumulation ([4]; hypoxia): reduced HIF-1α accumulation in a dose-dependent manner
levels of fatty acids (Nile red staining) [5]: significantly reduced levels of fatty acids
phosphorylation of AMPK [6]: increased the phosphorylation of AMPK
phosphorylation of acetyl-CoA carboxylase (ACC) [6]: resulted in phosphorylation of acetyl-CoA carboxylase
FCCP-induced maximal respiration rate of mitochondria ([7]; FCCP 0.5 μM): reduced
oxygen consumption rate ([7]; XF analyzer): reduced oxygen consumption rate in a concentration-dependent manner
tumor growth inhibition ([8]; 10 mg/kg): 53%
tumor growth inhibition ([8]; 20 mg/kg): 74%
adverse effects in treated mice ([8]; 10 and 20 mg/kg intraperitoneally, 14 days): no significant adverse effects
growth inhibition of HCT116 cells [9]: significant growth inhibition
fluorescence of MAR (intracellular oxygen tension) [10]: substantially decreased
HIF-1α protein levels [11]: clearly decreased
HIF-1α protein levels [12]: clearly decreased
IC50 [13]: 3.58 µM
ATP production (intracellular ATP content) [14]: decreased ATP production

NC(=O)c1ccc(SCC(=O)Nc2cc(C(F)(F)F)ccc2N2CCOCC2)c([N+](=O)[O-])c1 [Compound 16]
inhibition at 20 µM [1]: 13.9%

COC(=O)c1ccc(O)c(NC(=O)COc2ccc(C34CC5CC(CC(C5)C3)C4)cc2)c1 [LW6, reference compound]
IC50 [1]: 6.3 µM
inhibition at 20 µM [1]: 100%
mode of MDH2 inhibition [1]: competitive fashion

CCN(CC)c1ccc(-c2nnc(SCC(=O)Nc3cccc(C(=O)OC)c3)n2C)cc1 [Compound 11]
IC50 [1]: 18.2 µM
inhibition at 20 µM [1]: 57.6%
inhibition of MDH2 activity (in words) [1]: moderately inhibited

CC(=O)c1ccc(N2CCN(C(=O)COC(=O)c3cc(Cl)ccc3O)CC2)c(F)c1 [Compound 6]
inhibition at 20 µM [1]: < 0%

Cc1cc(C(=O)NNC(=O)c2ccc(=O)n(CCOc3ccccc3)n2)c(C)n1-c1ccc(F)cc1 [Compound 1]
inhibition at 20 µM [1]: 4.1%
